Assay results taken from PubChem BioAssay AID1259407 (Chemical Carcinogenesis Research Information System (CCRIS), 2018).
Activity calls are given as the source filed them. No rule for the calls is given here.

Tested on: CCRIS mutagenicity, Ames/micronucleus/aberration tests
Test: CCRIS mutagenicity studies

Measured: mutagenic call

CC(C)(C#N)N=NC(C)(C)C#N
inactive: Test System: AMES SALMONELLA TYPHIMURIUM, Strain/Indicator: TA98, Metabolic Activation: HAMSTER, LIVER, S-9, AROCLOR 1254, Method: PREINCUBATION inactive; negative | Test System: AMES SALMONELLA TYPHIMURIUM, Strain/Indicator: TA98, Metabolic Activation: NONE, Method: PREINCUBATION inactive; negative | Test System: AMES SALMONELLA TYPHIMURIUM, Strain/Indicator: TA98, Metabolic Activation: RAT LIVER S-9, PHENOBARBITAL AND BETA-NAPHTHOFLAVONE, Method: PREINCUBATION inactive; negative | Test System: AMES SALMONELLA TYPHIMURIUM, Strain/Indicator: TA98, Metabolic Activation: RAT, LIVER, S-9, AROCLOR 1254, Method: PREINCUBATION inactive; negative | Test System: AMES SALMONELLA TYPHIMURIUM, Strain/Indicator: TA100, Metabolic Activation: HAMSTER, LIVER, S-9, AROCLOR 1254, Method: PREINCUBATION inactive; negative | Test System: AMES SALMONELLA TYPHIMURIUM, Strain/Indicator: TA100, Metabolic Activation: NONE, Method: PREINCUBATION inactive; negative | Test System: AMES SALMONELLA TYPHIMURIUM, Strain/Indicator: TA100, Metabolic Activation: RAT LIVER S-9, PHENOBARBITAL AND BETA-NAPHTHOFLAVONE, Method: PREINCUBATION inactive; negative | Test System: AMES SALMONELLA TYPHIMURIUM, Strain/Indicator: TA100, Metabolic Activation: RAT, LIVER, S-9, AROCLOR 1254, Method: PREINCUBATION inactive; negative | Test System: AMES SALMONELLA TYPHIMURIUM, Strain/Indicator: TA1535, Metabolic Activation: HAMSTER, LIVER, S-9, AROCLOR 1254, Method: PREINCUBATION inactive; negative | Test System: AMES SALMONELLA TYPHIMURIUM, Strain/Indicator: TA1535, Metabolic Activation: NONE, Method: PREINCUBATION inactive; negative | Test System: AMES SALMONELLA TYPHIMURIUM, Strain/Indicator: TA1535, Metabolic Activation: RAT LIVER S-9, PHENOBARBITAL AND BETA-NAPHTHOFLAVONE, Method: PREINCUBATION inactive; negative | Test System: AMES SALMONELLA TYPHIMURIUM, Strain/Indicator: TA1535, Metabolic Activation: RAT, LIVER, S-9, AROCLOR 1254, Method: PREINCUBATION inactive; negative | Test System: AMES SALMONELLA TYPHIMURIUM, Strain/Indicator: TA1537, Metabolic Activation: HAMSTER, LIVER, S-9, AROCLOR 1254, Method: PREINCUBATION inactive; negative | Test System: AMES SALMONELLA TYPHIMURIUM, Strain/Indicator: TA1537, Metabolic Activation: NONE, Method: PREINCUBATION inactive; negative | Test System: AMES SALMONELLA TYPHIMURIUM, Strain/Indicator: TA1537, Metabolic Activation: RAT LIVER S-9, PHENOBARBITAL AND BETA-NAPHTHOFLAVONE, Method: PREINCUBATION inactive; negative | Test System: AMES SALMONELLA TYPHIMURIUM, Strain/Indicator: TA1537, Metabolic Activation: RAT, LIVER, S-9, AROCLOR 1254, Method: PREINCUBATION inactive; negative | Test System: AMES SALMONELLA TYPHIMURIUM, Strain/Indicator: TA1538, Metabolic Activation: HAMSTER, LIVER, S-9, AROCLOR 1254, Method: PREINCUBATION inactive; negative | Test System: AMES SALMONELLA TYPHIMURIUM, Strain/Indicator: TA1538, Metabolic Activation: NONE, Method: PREINCUBATION inactive; negative | Test System: AMES SALMONELLA TYPHIMURIUM, Strain/Indicator: TA1538, Metabolic Activation: RAT LIVER S-9, PHENOBARBITAL AND BETA-NAPHTHOFLAVONE, Method: PREINCUBATION inactive; negative | Test System: AMES SALMONELLA TYPHIMURIUM, Strain/Indicator: TA1538, Metabolic Activation: RAT, LIVER, S-9, AROCLOR 1254, Method: PREINCUBATION inactive; negative | Test System: E.COLI, Strain/Indicator: WP2UVRA, Metabolic Activation: NONE, Method: PREINCUBATION inactive; negative | Test System: E.COLI, Strain/Indicator: WP2UVRA, Metabolic Activation: RAT LIVER S-9, PHENOBARBITAL AND BETA-NAPHTHOFLAVONE, Method: PREINCUBATION inactive; negative | Test System: MOUSE LYMPHOMA, Strain/Indicator: L5178Y (TK+/TK-), Metabolic Activation: NONE, Method: SUSPENSION/PLATE inactive; negative. reevaluation of results: negative | Test System: MOUSE LYMPHOMA, Strain/Indicator: L5178Y (TK+/TK-), Metabolic Activation: RAT, LIVER, S-9, AROCLOR 1254, Method: SUSPENSION/PLATE inactive; negative. reevaluation of results: negative

Cc1cc2c3ccccc3ccc2c2ccccc12
inactive: Test System: AMES SALMONELLA TYPHIMURIUM, Strain/Indicator: TA98, Metabolic Activation: RAT, LIVER, CYTOSOL, AROCLOR 1254, Method: STANDARD PLATE inactive; negative | Test System: AMES SALMONELLA TYPHIMURIUM, Strain/Indicator: TA98, Metabolic Activation: RAT, LIVER, MICROSOMES, AROCLOR 1254, Method: STANDARD PLATE inactive; negative | Test System: AMES SALMONELLA TYPHIMURIUM, Strain/Indicator: TA100, Metabolic Activation: RAT, LIVER, MICROSOMES, 6-METHYLCHRYSENE, Method: STANDARD PLATE inactive; negative | Test System: AMES SALMONELLA TYPHIMURIUM, Strain/Indicator: TA100, Metabolic Activation: RAT, LIVER, MICROSOMES, AROCLOR 1254, Method: STANDARD PLATE inactive; negative | Test System: AMES SALMONELLA TYPHIMURIUM, Strain/Indicator: TA100, Metabolic Activation: RAT, LIVER, MICROSOMES, Method: STANDARD PLATE inactive; negative
